Drawing on patent publication US20130029942A1, “COMPOUNDS AND THERAPEUTICAL USES THEREOF” (Myrexis, Inc., priority 2003, published 2013), this text covers IC50 for 41 compounds.

The test system of the assay is P388 murine leukemia cell line. Nature of the assay: P388 cytotoxicity (ATP-Lite, 72 hours). The assay is classed as cell-based. The settings on record: Mus musculus, P388, 72 hours. The protocol:
A P388 murine leukemia cell line was obtained from NCI, Frederick, Md. P388 cells were cultured in RPMI-1640 supplemented with 10% fetal bovine serum, 2 mM Glutamax, 1 mM sodium pyruvate, 0.1 mM non-essential amino acids and 10 mM HEPES. Cells were grown at 37° C. in a humidified 5% CO2 atmosphere. Exponentially growing P388 cells were plated at 5,000 cells/well in a 96-well flat-bottomed microtiter plate (Corning, Costar #3595). […] Cellular viability was determined 72 hours later by measuring intracellular ATP with ATP-Lite assay system. The effect of compounds on cell viability was calculated by comparing the ATP levels of cells exposed to test compound with those of cells exposed to DMSO. […] Data was analyzed by Prism software (GraphPad; San Diego, Calif.) by fitting it to a sigmoidal dose response curve.

Consider `COc1ccc(N(C)c2nc(C)nc3sccc23)cc1` [Example 176, (4-Methoxy-phenyl)-methyl-(2-methyl-thieno[2,3-d]pyrimidin-4-yl)-amine], for which the 50% inhibitory concentration (IC50) (as a rule, the point on the concentration scale where inhibition reaches its midpoint) came out at 3 nM.

For `COc1ccccc1CN(C)c1nc(Cl)nc2ccccc12` [Example 177, (2-Chloro-quinazolin-4-yl)-(2-methoxy-benzyl)-methyl-amine], the IC50 is 970 nM. Compared with the last compound, the IC50 is about 320-fold higher.

The compound `COc1ccc(N(C)c2nc(NCCCl)nc3ccccc23)cc1` [Example 178, N^2-(2-Chloro-ethyl)-N^4-(4-methoxy-phenyl)-N^4-methyl-quinazoline-2,4-diamine] registered a half-inhibitory concentration (IC50) of 18 nM.

Compound `COc1cccc(CN(C)c2nc(Cl)nc3ccccc23)c1` [Example 179, (2-Chloro-quinazolin-4-yl)-(3-methoxy-benzyl)-methyl-amine] yielded a concentration for half-maximal inhibition (IC50) of 1400 nM.

Turning to `COc1ccc(N(C)c2nc(NCCCO)nc3ccccc23)cc1` [Example 180, 3-{4-[(4-Methoxy-phenyl)-methyl-amino]-quinazolin-2-ylamino}-propan-1-ol], the half-maximal inhibitory concentration (IC50) is 5 nM.

`COc1ccc(N(C)c2nc(NCCCCO)nc3ccccc23)cc1` [Example 181, 4-{4-[(4-Methoxy-phenyl)-methyl-amino]-quinazolin-2-ylamino}-butan-1-ol] showed an IC50 of 13 nM. This IC50 is about 2.6-fold higher than that of the compound before.

`CCOc1nc(N(C)c2ccc(OC)cc2)c2ccccc2n1` [Example 182, (2-Ethoxy-quinazolin-4-yl)-(4-methoxy-phenyl)-methyl-amine] yielded an IC50 of 2300 nM.

On to `COc1ccc(N(C)c2nc(N(C)CCCN(C)C)nc3ccccc23)cc1` [Example 183, N^2-(3-Dimethylamino-propyl)-N^4-(4-methoxy-phenyl)-N^2,N^4-dimethyl-quinazoline-2,4-diamine], for which the midpoint of inhibition, the IC50, lay at 490 nM. Compared with the last compound, the IC50 is about 4.7-fold lower.

In turn, `COc1ccc(N(C)c2nc(NCCCCN)nc3ccccc23)cc1` [Example 184, N^2-(4-Amino-butyl)-N^4-(4-methoxy-phenyl)-N^4-methyl-quinazoline-2,4-diamine] yielded a half-maximal inhibitory concentration (IC50) of 500 nM.

Take `COc1ccc(N(C)c2nc(C)nc3ccsc23)cc1` [Example 185, (4-Methoxy-phenyl)-methyl-(2-methyl-thieno[3,2-d]pyrimidin-4-yl)-amine]: the IC50 is 7 nM.

Regarding `COc1ccc(N(C)c2nc(NCCO)nc3ccc([N+](=O)[O-])cc23)cc1` [Example 186, 2-{4-[(4-Methoxy-phenyl)-methyl-amino]-6-nitro-quinazolin-2-ylamino}-ethanol], the half-maximal inhibitory concentration (IC50) was 1800 nM.

Turning to `COC(=O)CN(C)c1nc(N(C)c2ccc(OC)cc2)c2ccccc2n1` [Example 187, ({4-[(4-Methoxy-phenyl)-methyl-amino]-quinazolin-2-yl}-methyl-amino)-acetic acid methyl ester], the concentration for half-maximal inhibition (IC50) turned out to be 110 nM.

Turning to `COc1ccc(N(C)c2nc(C)nc3c2CCCC3)cc1` [Example 188, (4-Methoxy-phenyl)-methyl-(2-methyl-5,6,7,8-tetrahydro-quinazolin-4-yl)-amine], the half-inhibitory concentration (IC50) was 2 nM.

`COc1ccc(N(C)c2nc(NCCO)nc3ccc(N)cc23)cc1` [Example 189, 2-{6-Amino-4-[(4-methoxy-phenyl)-methyl-amino]-quinazolin-2-ylamino}-ethanol] gave an IC50 of 460 nM.

In the case of `CONc1nc2c(c(N(C)c3ccc(OC)cc3)n1)CCCC2` [Example 190, N-{4-[(4-Methoxy-phenyl)-methyl-amino]-5,6,7,8-tetrahydro-quinazolin-2-yl}-O-methyl-hydroxylamine], the IC50 came to 6 nM. This IC50 is about 77-fold lower than that of the compound before.

`CCOC(=O)CNc1nc2c(c(N(C)c3ccc(OC)cc3)n1)CCCC2` [Example 191, {4-[(4-Methoxy-phenyl)-methyl-amino]-5,6,7,8-tetrahydro-quinazolin-2-ylamino}-acetic acid ethyl ester] displayed a half-inhibitory concentration (IC50) of 470 nM.

As to `CNc1nc2c(c(N(C)c3ccc(OC)cc3)n1)CCCC2` [Example 192, N^4-(4-Methoxy-phenyl)-N^2,N^4-dimethyl-5,6,7,8-tetrahydro-quinazoline-2,4-diamine], the IC50 was determined as 19 nM.

`COc1ccc(N(C)c2nc(NCCO)nc3c2CCCC3)cc1` [Example 194, 2-{4-[(4-Methoxy-phenyl)-methyl-amino]-5,6,7,8-tetrahydro-quinazolin-2-ylamino}-ethanol] yielded a half-inhibitory concentration (IC50) of 20 nM.

`COc1ccc(N(C)c2nncc3ccc(F)cc23)cc1` [Example 195, (7-Fluoro-phthalazin-1-yl)-(4-methoxy-phenyl)-methyl-amine] had an IC50 of 1500 nM.

`COc1ccc(N(C)c2nncc3cc(F)ccc23)cc1` [Example 196, (6-Fluoro-phthalazin-1-yl)-(4-methoxy-phenyl)-methyl-amine] displayed a 50% inhibitory concentration (IC50) of 330 nM. This IC50 lies about 4.5-fold lower than the previous one.

`CONc1nc2c(c(N(C)c3ccc(OC)cc3)n1)CCC2` [Example 197, N-{4-[(4-Methoxy-phenyl)-methyl-amino]-6,7-dihydro-5H-cyclopentapyrimidin-2-yl}-O-methyl-hydroxylamine] had a half-maximal inhibitory concentration (IC50) of 8 nM. This IC50 lies about 41-fold lower than the previous one.

`COc1ccc(N(C)c2nc(OC(C)C)nc3cccc(F)c23)cc1` [Example 198, (5-Fluoro-2-isopropoxy-quinazolin-4-yl)-(4-methoxy-phenyl)-methyl-amine] returned an IC50 of 3 nM.

As to `COc1ccc(N(C)c2nc(C(F)(F)F)nc3ccccc23)cc1` [Example 199, (4-Methoxy-phenyl)-methyl-(2-trifluoromethyl-quinazolin-4-yl)-amine], the concentration for half-maximal inhibition (IC50) worked out at 3 nM.

The compound `CNc1nc2c(c(N(C)c3ccc(OC)cc3)n1)CCC2` [Example 200, N^4-(4-Methoxy-phenyl)-N^2,N^4-dimethyl-6,7-dihydro-5H-cyclopentapyrimidine-2,4-diamine] returned a 50% inhibitory concentration (IC50) of 7 nM.

Take `CNc1nc2c(c(N(C)c3ccc(OC)cc3)n1)CCCCC2` [Example 201, N4-(4-Methoxy-phenyl)-N2,N4-dimethyl-6,7,8,9-tetrahydro-5H-cycloheptapyrimidine-2,4-diamine]: 76 nM corresponded to half-maximal inhibition (IC50).

On to `CCOC(=O)CNc1nc2c(c(N(C)c3ccc(OC)cc3)n1)CCC2` [Example 202, {4-[(4-Methoxy-phenyl)-methyl-amino]-6,7-dihydro-5H-cyclopentapyrimidin-2-ylamino}-acetic acid ethyl ester], for which half-maximal inhibition (IC50) required 300 nM.

Turning to `COc1ccc(N(C)c2nc(CNC(C)=O)nc3ccccc23)cc1` [Example 203, N-{4-[(4-Methoxy-phenyl)-methyl-amino]-quinazolin-2-ylmethyl}-acetamide], the IC50 turned out to be 19 nM.

Compound `Cc1nc(N(C)c2ccc(N(C)C(=O)OC(C)(C)C)cc2)c2ccccc2n1` [Example 204, Methyl-{4-[methyl-(2-methyl-quinazolin-4-yl)-amino]-phenyl}-carbamic acid tert-butyl ester] yielded an IC50 of 460 nM.

Regarding `COc1ccc(N(C)c2nc(CN)nc3ccc(F)cc23)cc1` [Example 205, (2-Aminomethyl-6-fluoro-quinazolin-4-yl)-(4-methoxy-phenyl)-methyl-amine], it took 19 nM to reach half-maximal inhibition (IC50).

As to `COc1ccc(N(C)c2nc(CC#N)nc3ccccc23)cc1` [Example 206, {4-[(4-Methoxy-phenyl)-methyl-amino]-quinazolin-2-yl}-acetonitrile], half-maximal inhibition (IC50) required 2 nM. Compared with the last compound, the IC50 is about 9.5-fold lower.

For the compound `CCOc1ccc(N(C)c2nc(C)nc3ccc([N+](=O)[O-])cc23)cc1` [Example 207, (4-Ethoxy-phenyl)-methyl-(2-methyl-6-nitro-quinazolin-4-yl)-amine], the IC50 was determined as 17 nM.

The compound `COc1ccc(N(C)c2nc(CCl)nc3ccc(Br)cc23)cc1` [Example 208, (6-Bromo-2-chloromethyl-quinazolin-4-yl)-(4-methoxy-phenyl)-methyl-amine] returned an IC50 of 27 nM.

Compound `Cc1nc(N(C)c2ccc(OC(F)F)cc2)c2cc([N+](=O)[O-])ccc2n1` [Example 209, (4-Difluoromethoxy-phenyl)-methyl-(2-methyl-6-nitro-quinazolin-4-yl)-amine] yielded a half-inhibitory concentration (IC50) of 490 nM.

Compound `COc1ccc(N(C)c2nc(C)nc3ccc([N+](=O)[O-])cc23)cc1F` [Example 210, (3-Fluoro-4-methoxy-phenyl)-methyl-(2-methyl-6-nitro-quinazolin-4-yl)-amine] had a concentration for half-maximal inhibition (IC50) of 57 nM.

For the compound `CCOc1ccc(N(C)c2nc(CN)nc3ccccc23)cc1` [Example 211, (2-Aminomethyl-quinazolin-4-yl)-(4-ethoxy-phenyl)-methyl-amine], the half-inhibitory concentration (IC50) worked out at 15 nM.

In turn, `COc1ccc(N(C)c2nc(CCN)nc3ccccc23)cc1` [Example 212, [2-(2-Amino-ethyl)-quinazolin-4-yl]-(4-methoxy-phenyl)-methyl-amine] displayed an IC50 of 250 nM.

Take `COc1ccc(N(C)c2nc(CN)nc3ccc(N)cc23)cc1` [Example 213, 2-Aminomethyl-N4-(4-methoxy-phenyl)-N4-methyl-quinazoline-4,6-diamine]: the IC50 was 170 nM.

`CCOc1ccc(N(C)c2nc(C)nc3ccc(N)cc23)cc1` [Example 214, N^4-(4-Ethoxy-phenyl)-2,N^4-dimethyl-quinazoline-4,6-diamine] returned a concentration for half-maximal inhibition (IC50) of 9 nM.

As to `COc1ccc(N(C)c2nc(C)nc3ccc(N)cc23)cc1F` [Example 215, N^4-(3-Fluoro-4-methoxy-phenyl)-2,N^4-dimethyl-quinazoline-4,6-diamine], inhibition was half-maximal at 3 nM (IC50). This IC50 is about 3-fold lower than that of the compound before.

Regarding `Cc1nc(N(C)c2ccc(OC(F)F)cc2)c2cc(N)ccc2n1` [Example 216, N^4-(4-Difluoromethoxy-phenyl)-2,N^4-dimethyl-quinazoline-4,6-diamine], the 50% inhibitory concentration (IC50) amounted to 20 nM.

With `CC(C)Oc1ccc(N(C)c2nc(CN)nc3ccccc23)cc1` [Example 217, (2-Aminomethyl-quinazolin-4-yl)-(4-isopropoxy-phenyl)-methyl-amine], the concentration for half-maximal inhibition (IC50) is 18 nM.
